Laboratory results published in publication PMC6225212, “Synthesis and Pharmacological Evaluation of Novel Silodosin-Based Arylsulfonamide Derivatives as α1A/α1D-Adrenergic Receptor Antagonist with Potential Uroselective Profile” (Molecules : A Journal of Synthetic Chemistry and Natural …, 2018).
Read-outs that look alike come from different tables or passages of the source.

Key:
[1] = target: T1, α1D-ARs (Homo sapiens, UniProt P25100); assay: Intrinsic activity at α1D-ARs, aequorin calcium mobilization luminescence; type: cell-based; set-up: key to α1D Profile: ANT—antagonist; AGO—agonist; conditions: for α1D Profile: functional profile; for IC50: antagonist mode
T1 sequence (P25100 1-572): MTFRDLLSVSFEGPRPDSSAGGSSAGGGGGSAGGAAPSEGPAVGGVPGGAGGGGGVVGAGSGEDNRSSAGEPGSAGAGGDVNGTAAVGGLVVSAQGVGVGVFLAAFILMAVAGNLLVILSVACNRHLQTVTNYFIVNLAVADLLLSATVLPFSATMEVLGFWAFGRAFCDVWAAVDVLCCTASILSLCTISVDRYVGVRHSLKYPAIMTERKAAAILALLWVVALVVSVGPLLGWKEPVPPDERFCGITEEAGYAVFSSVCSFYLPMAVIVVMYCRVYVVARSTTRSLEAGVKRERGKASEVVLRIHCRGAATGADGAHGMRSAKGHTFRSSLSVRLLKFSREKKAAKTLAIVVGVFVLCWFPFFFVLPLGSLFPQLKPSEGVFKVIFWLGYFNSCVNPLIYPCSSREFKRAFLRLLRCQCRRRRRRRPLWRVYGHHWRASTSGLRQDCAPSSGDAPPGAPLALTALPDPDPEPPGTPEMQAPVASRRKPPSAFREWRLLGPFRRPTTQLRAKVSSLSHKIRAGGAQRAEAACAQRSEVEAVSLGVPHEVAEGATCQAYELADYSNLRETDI
Method: (§1) The intrinsic activity at α1A-ARs of the selected compounds was assessed by fluorescence detection (Invitrogen, Thermo Fisher Scientific, Carlsbad, CA, USA) of β-lactamase reporter genes using a FRET-enabled substrate. The intrinsic activity at α1B-ARs and α1D-ARs was determined by luminescence detection (PerkinElmer, Zaventem, Belgium) of calcium mobilization using the recombinant-expressed jellyfish photoprotein (Aequorin).
(§2) Intrinsic activity assay to α1B- and α1D-ARs was performed according to the manufacturer of the ready-to-use cells with stable expression of the α1B-adrenoreceptors and α1D-adrenoreceptors, respectively (PerkinElmer, Zaventem, Belgium). For measurement, cells (frozen, ready to use) were thawed and resuspended in 10 mL of assay buffer containing 5 µM coelenterazine h. This cells suspension was put in a 10 mL Falcon tube, fixed onto a rotating heel, and incubated for overnight at rt in the dark (8 rpm; 45° angle). Cells were diluted with Assay Buffer to 5000 cells/20 µL. Agonistic ligands 2 × (50 µL/well), diluted in Assay Buffer, were prepared in ½ white polystyrene area plates, and the cell suspension was dispensed in 50 µL volume on the ligands using the injector. The light emitted was recorded for 20 s. Cells with antagonist were incubated for 15 min at room temperature. Thereafter, 50 µL of agonist (3 × EC80 final concentration) was injected into the mix of cells and antagonist and the light emitted was recorded for 20 s.

[2] = target: T2, α1B-ARs (Homo sapiens, UniProt P35368); assay: Intrinsic activity at α1B-ARs, aequorin calcium mobilization luminescence; type: cell-based; set-up: key to α1B Profile: ANT—antagonist; AGO—agonist; conditions: for α1B Profile: functional profile; for IC50: antagonist mode, three independent experiments
T2 sequence (P35368 1-520): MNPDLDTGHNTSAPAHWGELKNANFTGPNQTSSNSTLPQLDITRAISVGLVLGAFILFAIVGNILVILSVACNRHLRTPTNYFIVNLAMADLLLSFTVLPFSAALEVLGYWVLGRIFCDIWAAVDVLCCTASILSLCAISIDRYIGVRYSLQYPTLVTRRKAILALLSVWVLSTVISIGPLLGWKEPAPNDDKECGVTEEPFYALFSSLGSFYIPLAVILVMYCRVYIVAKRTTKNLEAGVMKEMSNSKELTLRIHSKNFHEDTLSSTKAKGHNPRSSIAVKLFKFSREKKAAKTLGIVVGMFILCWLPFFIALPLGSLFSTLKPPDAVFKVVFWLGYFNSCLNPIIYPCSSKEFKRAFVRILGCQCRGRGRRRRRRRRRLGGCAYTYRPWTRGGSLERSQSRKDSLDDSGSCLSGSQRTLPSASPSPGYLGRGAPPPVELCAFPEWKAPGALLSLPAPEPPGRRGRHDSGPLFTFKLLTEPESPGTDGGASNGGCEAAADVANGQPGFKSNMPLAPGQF
Method: as §1, §2

[3] = target: T3, α1A-ARs (Homo sapiens, UniProt P35348); assay: Intrinsic activity at α1A-ARs, β-lactamase reporter gene, FRET substrate; type: cell-based; set-up: key to α1A Profile: ANT—antagonist; AGO—agonist; conditions: for α1A Profile: functional profile; for IC50: antagonist mode, three independent experiments
T3 sequence (P35348 1-466): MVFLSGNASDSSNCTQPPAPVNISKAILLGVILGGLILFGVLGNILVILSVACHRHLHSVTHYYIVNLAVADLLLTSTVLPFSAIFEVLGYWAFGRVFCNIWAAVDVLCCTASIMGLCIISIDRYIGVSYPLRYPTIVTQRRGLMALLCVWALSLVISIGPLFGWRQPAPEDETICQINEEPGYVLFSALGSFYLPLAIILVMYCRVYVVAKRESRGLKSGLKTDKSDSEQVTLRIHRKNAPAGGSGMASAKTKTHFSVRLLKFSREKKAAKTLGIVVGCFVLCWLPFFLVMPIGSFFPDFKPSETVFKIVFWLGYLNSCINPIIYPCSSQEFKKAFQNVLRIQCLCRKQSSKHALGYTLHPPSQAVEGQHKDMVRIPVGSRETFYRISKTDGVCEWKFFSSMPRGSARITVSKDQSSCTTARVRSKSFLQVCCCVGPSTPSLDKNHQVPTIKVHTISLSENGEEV
Method: The intrinsic activity at α1A-ARs of the selected compounds was assessed by fluorescence detection (Invitrogen, Thermo Fisher Scientific, Carlsbad, CA, USA) of β-lactamase reporter genes using a FRET-enabled substrate. […] Intrinsic activity assay was performed according to the manufacturer of the assay kit (Invitrogen, Thermo Fisher Scientific corporation, Carlsbad, CA, USA). The cells were harvested and suspended in Assay Medium to a density of 312,500 cells/mL. Of the cell suspension, 32 µL per well was added to the Test Compound wells, the Unstimulated Control wells, and Stimulated Control wells and incubated per 16–24 h. […] Then, both the agonist and the antagonist plate were incubated in a humidified 37 °C/5% CO2 incubator for 5 h. After the incubation 8 µL of LiveBLAzer™-FRET B/G Substrate Mixture (CCF4-AM, Thermo Fisher Scientific corporation) was loaded cells in the absence of direct strong lighting, covered, and incubated at room temperature for 2 h.

[4] = target: α2-ARs; set-up: method as in PMID 27658792; conditions: [3H]-Clonidine, rat cerebral cortex; ± SEM; cited from earlier work
[5] = tested on: α1-ARs; set-up: method as in PMID 27658792; conditions: cited from earlier work
[6] = target: α2-ARs; assay: Radioligand binding, displacement of [3H]-Clonidine from α2-ARs on rat cerebral cortex; conditions: ± SEM, two independent experiments
Method: (§3) The pharmacological profile of the new compounds was assessed in radioligand-binding assays as the ability to displace [^3H]-Prazosin or [^3H]-Clonidine from α1- and α2-ARs, respectively, on rat cerebral cortex. The inhibition constants (Ki) were calculated from the Cheng-Prusoff equation [24].
(§4) The affinity of the obtained compounds was evaluated by radioligand-binding assays (the ability to displace [^3H]-Prazosin and [^3H]-Clonidine from α1- and α2-ARs, respectively) on rat cerebral cortex. The brains are homogenized in 20 volumes of an ice-cold 50 mM Tris-HCl buffer (pH 7.6) and is centrifuged (MPW Med. Instruments, Warsaw, Poland) at 20,000 g for 20 min (0–4 °C). The cell pellet is resuspended in the Tris-HCl buffer and centrifuged again. Radioligand-binding assays are performed in plates (MultiScreen/Millipore, Burlington, MA, USA). The final incubation mixture (final volume 300 µL) consisted of 240 µL of the membrane suspension, 30 µL of [^3H]-Prazosin (0.2 nM) or [^3H]-Clonidine (2 nM) solution, and 30 µL of the buffer containing seven to eight concentrations (10^−11 to 10^−4 M) of the tested compounds. For measuring the unspecific binding, phentolamine, 10 µM (in the case of [^3H]-Prazosin) and clonidine, and 10 µM (in the case of [^3H]-Clonidine), were applied. The incubation was terminated by rapid filtration over glass fiber filters (Whatman GF/C, Sigma-Aldrich) using a vacuum manifold (Millipore). The filters were then washed twice with the assay buffer and placed in scintillation vials with a liquid-scintillation cocktail. Radioactivity was measured in a WALLAC 1409 DSA liquid-scintillation counter (BioSurplus, San Diego, CA, USA). All the assays were made in duplicate.

[7] = tested on: α1-ARs; assay: Radioligand binding, displacement of [3H]-Prazosin from α1-ARs on rat cerebral cortex; conditions: for Sα2/α1 (ratio of affinity for α2- and α1-ARs): Ki α2 / Ki α1; for Ki: [3H]-Prazosin, rat cerebral cortex, ± SEM, two independent experiments
Method: as §3, §4

[8] = antagonist, as worded in abstract and text, read-out: EC50(α1D)

| SMILES | α1D Profile [1] | α1B Profile [2] | α1A Profile [3] | Ki [6] | Sα2/α1 (ratio of affinity for α2- and α1-ARs) [7] | Ki [7] | other results |
| --- | --- | --- | --- | --- | --- | --- | --- |
| CNC[C@H](O)c1cccc(O)c1 [phenylephrine, reference compound] | AGO | AGO | AGO ^b |  |  |  | EC50 ([1]; agonist mode, three independent experiments, read-out: α1D EC50): 12.1 nM |
| CC(C)Oc1ccccc1OCCN1CC[C@H](NS(=O)(=O)c2cc(Cl)ccc2F)C1 [II] |  |  |  |  |  |  | Ki [4]: > 10000 nM; Sα2/α1 (ratio of affinity for α2- and α1-ARs) ([5]; Ki α2 / Ki α1): >41; Ki ([5]; [3H]-Prazosin, rat cerebral cortex, ± SEM): 242 ± 16 nM |
| O=S(=O)(N[C@H]1CCN(CCOc2ccccc2OCC(F)(F)F)C1)c1ccc(F)cc1 [Compound 14, (S)-4-Fluoro-N-(1-{2-[(2,2,2-trifluoroethoxy)phenoxy]ethyl}pyrrolidin-3-yl)benzenesulfonamide] |  |  |  | > 10000 nM | >70 | 134 ± 16 nM |  |
| COc1ccc(Cl)cc1S(=O)(=O)NCC1CCN(CCOc2ccccc2OCC(F)(F)F)CC1 [Compound 11, 5-Chloro-2-methoxy-N-[(1-{2-[(2,2,2-trifluoroethoxy)phenoxy]ethyl}piperidin-4-yl)methyl]benzenesulfonamide] |  |  |  | 1090 ± 62 nM | 12 | 95 ± 3 nM |  |
| COc1ccc(S(=O)(=O)N[C@@H]2CCN(CCOc3ccccc3OCC(F)(F)F)C2)cc1OC [Compound 17, (R)-3,4-Dimethoxy-N-(1-{2-[(2,2,2-trifluoroethoxy)phenoxy]ethyl}pyrrolidin-3-yl)benzenesulfonamide] |  |  |  | 435 ± 21 nM | 4 | 105 ± 7 nM |  |
| COc1cc2nc(N3CCN(C(=O)C4CCCO4)CC3)nc(N)c2cc1OC (stereo not shown) [terazosin, reference compound] | ANT | ANT | ANT |  |  |  | IC50 ([1]; three independent experiments): 0.2 nM |
| COc1ccc(S(=O)(=O)NCC2CCN(CCOc3ccccc3OCC(F)(F)F)CC2)cc1OC [Compound 12, 3,4-Dimethoxy-N-[(1-{2-[(2,2,2-trifluoroethoxy)phenoxy]ethyl}piperidin-4-yl)methyl]benzenesulfonamide] | ANT | ANT | ANT | 524 ± 31 nM | 27 | 19 ± 3 nM | IC50 ([1]; three independent experiments): 2.6 nM; EC50 [1, 8]: 1.1 to 2.7 nM; IC50 [2]: 0.02 nM; IC50 [3]: 15 nM |
| O=S(=O)(NCC1CCN(CCOc2ccccc2OCC(F)(F)F)CC1)c1ccc(F)cc1 [Compound 8, 4-Fluoro-N-[(1-{2-[(2,2,2-trifluoroethoxy)phenoxy]ethyl}piperidin-4-yl)methyl]benzenesulfonamide] | ANT | ANT | ANT | 919 ± 25 nM | 46 | 20 ± 2 nM | IC50 ([1]; three independent experiments): 1.1 nM; EC50 [1, 8]: 1.1 to 2.7 nM; IC50 [2]: 8.3 nM; IC50 [3]: 3.8 nM |
| O=S(=O)(N[C@@H]1CCN(CCOc2ccccc2OCC(F)(F)F)C1)c1ccc(F)cc1 [Compound 13, (R)-4-Fluoro-N-(1-{2-[(2,2,2-trifluoroethoxy)phenoxy]ethyl}pyrrolidin-3-yl)benzenesulfonamide] |  |  |  | 1690 ± 85 nM | 9 | 188 ± 3 nM |  |
| O=S(=O)(N[C@@H]1CCN(CCOc2ccccc2OCC(F)(F)F)C1)c1cc(Cl)ccc1F [Compound 15, (R)-5-Chloro-2-fluoro-N-(1-{2-[(2,2,2-trifluoroethoxy)phenoxy]ethyl}pyrrolidin-3-yl)benzenesulfonamide] |  |  |  | 1190 ± 74 nM | 7 | 171 ± 4 nM |  |
| O=S(=O)(N[C@H]1CCN(CCOc2ccccc2OCC(F)(F)F)C1)c1cc(Cl)ccc1F [Compound 16, (S)-5-Chloro-2-fluoro-N-(1-{2-[(2,2,2-trifluoroethoxy)phenoxy]ethyl}pyrrolidin-3-yl)benzenesulfonamide] |  |  |  | 1470 ± 80 nM | 13 | 117 ± 10 nM |  |
| COc1ccc(S(=O)(=O)N[C@H]2CCN(CCOc3ccccc3OCC(F)(F)F)C2)cc1OC [Compound 18, (S)-3,4-Dimethoxy-N-(1-{2-[(2,2,2-trifluoroethoxy)phenoxy]ethyl}pyrrolidin-3-yl)benzenesulfonamide] |  |  |  | 1140 ± 42 nM | 16 | 70 ± 1 nM |  |
